Measured values as given in ChEMBL document CHEMBL1142831, “Identification of a potent non-hydroxamate histone deacetylase inhibitor by mechanism-based drug design” (Bioorg Med Chem Lett, 2005).

What was measured:
[1] = target: Histone deacetylase (Homo sapiens) (UniProt Q13547+O15379+Q9UBN7+Q92769+Q9UQL6+Q8WUI4+Q9BY41+Q96DB2+P56524+Q9UKV0+Q969S8); settings: HeLa, at 100 µM
Description: Percentage inhibition against histone deacetylase of HeLa cells at 100 uM

Histone deacetylase = assay: Inhibitory concentration against histone deacetylase of HeLa cells; type: cell-based, Homo sapiens

SMILES	inhibition [1] [%]	IC50 (Histone deacetylase) [µM]
O=C(CS)NCCCCCC(=O)Nc1ccccc1	99	–
NCC(=O)NCCCCCC(=O)Nc1ccccc1	–	> 100
CC(=O)SCC(=O)NCCCCCC(=O)Nc1ccccc1	72	22
O=C(CS)NCCCCCCC(=O)Nc1ccccc1	96	3
CS(=O)(=O)CCCCCCC(=O)Nc1ccccc1	33	230
O=C(CCS)NCCCCCC(=O)Nc1ccccc1	78	24
CS(=O)(=O)NCCCCCC(=O)Nc1ccccc1	10	7500
O=C(CO)NCCCCCC(=O)Nc1ccccc1	–	> 100
O=C(CS)NCCCCC(=O)Nc1ccccc1	88	11
